{
  "source": "patent US20240148679A1",
  "about": "“METHODS AND COMPOSITIONS RELATED TO TREATMENT AND PREVENTION OF CANCER BY INHIBITION OF DGAT1 AND DGAT2” (Ohio State Innovation Foundation, priority 2019, published 2024)",
  "key": {"[1]": {"system": "GBM30-derived subcutaneous model", "test": "GBM30 subcutaneous xenograft model", "assay_type": "in vivo, mice", "conditions": "120 mg/kg/day", "method": "(§1) (A-C) The effects of the DGAT1 inhibitor […] (120 mg/kg/day, oral gavage, details in Methods) in U87/EGFRvIII cells (1×10^6 cells/mouse)- or GBM30-derived subcutaneous models (4×10^6 cells/mouse), as shown by tumor growth rate in A and final isolated tumor images and weights in B. Tumor tissues were analyzed for LD presence by IF (TIP47 staining) and CPT1A and cleaved Caspase 3 levels by IHC in C. LD numbers and protein levels in tumor tissues were quantified by ImageJ and averaged from 5 separate areas in each tumor. The results for protein levels were normalized to control tumors (mean±SEM). Statistical significance was determined by one-way ANOVA. * P<0.01 for comparison with control group. Scale bars, m for IF, 40 m for IHC.\n(§2) It was next examined whether pharmacological inhibition of DGAT1 is effective in inhibiting GBM growth using U87/EGFRvIII and GBM30 xenograft models. Tumor cells were implanted in mice flanks and started treatment with DGAT1 inhibitor A-922500 (120 mg/kg/day) when tumor reached approximately 80 mm3.\n(§3) Intracranial xenograft models were generated using female athymic nude (NCr-nu/nu) mice (6-8 weeks of age obtained from OSU Target Validation Shared Resource). U87EGFRvIII (1×10^6) cells infected with shDGAT1-, shDGAT2- or scramble shRNA-expressing lentivirus for 48 hr (suspended in 100 μl PBS) were implanted into mice flank to generate subcutaneous model. For intracranial xenograft model, U87EGFRvIII-luc (1×10^5) or GBM30-luc (1×10^5) cells infected with shDGAT1-, shDGAT2- or scramble shRNA-expressing lentivirus for 48 hours (suspended in 5 μl PBS) were implanted into mouse brains. Mice were observed until they became moribund, at which point they were sacrificed. For drug treatment, U87EGFRvIII (1×10^6 cells suspended in 100 μl PBS) or GBM30 cells (4×10^6 suspended in 100 μl PBS and then mixed with 100 μl matrigel) were implanted in mouse flanks. DGAT1 inhibitor A-922500 (120 mg/kg/day, oral gavage) was formulated by 1% Tween 80 in PBS and administrated to mice when tumor size reached approximately 80 mm^3."}, "[2]": {"system": "U87/EGFRvIII cells-derived subcutaneous model", "test": "U87/EGFRvIII subcutaneous xenograft model", "assay_type": "in vivo, mice", "conditions": "120 mg/kg/day", "method": "as §1, §2, §3"}, "[3]": {"system": "BIP and CHOP", "test": "Western blot of ER stress markers", "assay_type": "cell-based, human", "conditions": "20 μg/ml, 24 hours, GBM cells", "method": "(A) Western blotting analysis of ER stress protein markers BIP and CHOP expression in GBM cells treated with the DGAT1 inhibitor A-922500 (20 μg/ml) for 24 hr. (B) Percentage of cell death in U251 cells treated with the ER stress pathway PERK inhibitor GSK2656157 or IRE1a inhibitor 4μ8C, alone or in combination with the DGAT1 inhibitor A-922500 (20 μg/ml) for 3 days. […] (C) Western blotting analysis of expression of ER stress protein markers BIP and CHOP in GBM cells infected with shRNA-expressing lentivirus against DGAT1 for 48 hr.\nWestern Blotting Cells were lysed by RIPA buffer (Cat #NC9484499; Fisher Scientific) containing protease inhibitor cocktail (Cat #11836170001; Roche) and phosphatase inhibitor (Cat #04906845001; Roche). The proteins were separated by using 12% SDS-PAGE, and transferred onto a Hybond ECL nitrocellulose membrane (Cat #RPN3032D; GE Healthcare).\nAfter blocking for 1.5 h in 5% nonfat milk diluted by Tris-buffered saline containing 0.1% Tween 20, the membranes were incubated with various primary antibodies, followed by secondary antibodies conjugated to horseradish peroxidase."}, "[4]": {"system": "U251 cells", "test": "Mitochondrial membrane potential (Rhodamine 123)", "assay_type": "cell-based, human", "conditions": "20 μg/ml, 24 hr", "method": "(A, B) Transmission electron microscopy analysis of the mitochondrial structure in U251cells treated with the DGAT1 inhibitor A-922500 (20 μg/ml) or DGAT2 inhibitor PF-06424439 (20 μg/ml) for 24 hr (A) or infected with shRNA-expressing lentivirus against DGAT1 for 48 hr (B). Scale bar, 500 nm. Mitochondria are indicated by arrows. (C) Representative fluorescence images of mitochondria in U251 cells treated with the DGAT1 inhibitor or DGAT2 inhibitor. Mitochondria were stained with MitoTracker Red. LDs were stained with BODIPY 493/503. Nuclei were stained with Hoechst 33342. Scale bar, 10 μm. (D) Representative fluorescence images of mitochondria in GBM cells infected with shRNA-expressing lentivirus against DGAT1 or DGAT2 for 48 hr. Mitochondria were stained with MitoTracker Red. LDs were stained with BODIPY 493/503. Nuclei were stained with Hoechst 33342. Scale bar, 10 μm. (E, F) Representative fluorescence image analysis of mitochondrial membrane potential stained with Rhodamine123 in U251 cells treated with the DGAT1 inhibitor A-922500 (20 μg/ml) for 24 hr or infected with shRNA-expressing lentivirus against DGAT1 for 48 hr. Nuclei were stained with Hoechst 33342. Scale bar, 10 μm. Rhodamine123 staining was quantified by ImageJ software in more than 100 cells. Statistical significance was determined by s t-test for inhibitor treatment or one-way ANOVA for shRNA knockdown. *P<0.0001. […]"}, "[5]": {"conditions": "oral gavage, listed as A-900225"}},
  "data": [
    {"smiles": "O=C(Nc1ccccc1)Nc1ccc(-c2ccc(C(=O)[C@@H]3CCC[C@H]3C(=O)O)cc2)cc1", "note": "[A-922500]", "values": [
      {"measurement": "CPT1A expression in tumor tissues", "setting": "[1]", "result": "significantly increased CPT1A expression"},
      {"measurement": "LD formation in tumor tissues (TIP47)", "setting": "[1]", "result": "dramatically suppressed LD formation"},
      {"measurement": "cleaved caspase 3 levels in tumor tissues", "setting": "[1]", "result": "markedly elevated cleaved caspase 3 levels"},
      {"measurement": "tumor growth", "setting": "[1]; oral gavage", "result": "significantly suppressed tumor growth"},
      {"measurement": "tumor weight", "setting": "[1]; oral gavage", "result": "dramatic reduction in tumor weight"},
      {"measurement": "tumor growth", "setting": "[1]; [5]", "result": "dramatically suppresses GBM tumor growth"},
      {"measurement": "CPT1A expression in tumor tissues", "setting": "[2]", "result": "significantly increased CPT1A expression"},
      {"measurement": "LD formation in tumor tissues (TIP47)", "setting": "[2]", "result": "dramatically suppressed LD formation"},
      {"measurement": "cleaved caspase 3 levels in tumor tissues", "setting": "[2]", "result": "markedly elevated cleaved caspase 3 levels"},
      {"measurement": "tumor growth", "setting": "[2]; oral gavage", "result": "significantly suppressed tumor growth"},
      {"measurement": "tumor weight", "setting": "[2]; oral gavage", "result": "dramatic reduction in tumor weight"},
      {"measurement": "tumor growth", "setting": "[2]; [5]", "result": "dramatically suppresses GBM tumor growth"},
      {"measurement": "protein levels of BIP and CHOP (ER stress)", "setting": "[3]", "result": "induces ER stress"},
      {"measurement": "protein levels of BIP and CHOP (ER stress)", "setting": "[3]; listed as A922500", "result": "increased"},
      {"measurement": "mitochondria membrane potential", "setting": "[4]", "result": "significantly reduced"}
    ]}
  ]
}
